Drawing on PubChem BioAssay AID179 (DTP/NCI, 2004), this text covers EC50, IC50 and outcome for 70 compounds.

The subject of this assay is CEM cells HIV-1 protection, formazan growth assay. Briefly: NCI AIDS Antiviral Assay. Conditions: for IC50: measured here: growth of uninfected CEM cells. In a few lines:
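Five concentrations of each compound were applied to infected and uninfected human CEM cells. Protection from HIV-1 was judged from growth measured with a soluble formazan assay.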

Active and inactive are the calls of the source.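 Rule for the calls: active = compounds giving half or more protection of infected cells from virus-caused growth loss, again on retest; inactive = the rest.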 Where a SMILES comes first, the peptide text is derived from it. Bridges are numbered along the chain shown (N, C = ends).

Consider `Clc1ccc(CN2COc3c(ccc4ccccc34)C2)cc1`, for which the EC50 was above 200 µM and the IC50 stood at 70.8 µM.

Consider `N=c1oc2cc(O)c(O)cc2cc1C(N)=O`, for which the EC50 is above 8.32 µM and the IC50 was found to be 7.41 µM.

As to `[C-]#[N+]CS(=O)(=O)c1ccc(C)cc1`, the EC50 was above 479 µM and the IC50 was above 479 µM.

For `C[n+]1c(-c2ccc(/C=N/NC(=N)N/N=C/c3ccc(-c4cn5cc(Cl)ccc5[n+]4C)cc3)cc2)cn2cc(Cl)ccc21`, the EC50 was 6.46 µM and the IC50 worked out at 155 µM.

For the compound `COC(=O)n1nnc2ncccc21`, the EC50 is above 200 µM and the IC50 was above 200 µM.

`CCCCC(Sc1cc(Cl)c(C)cc1S(=O)(=O)Nc1n[nH]c(N)n1)C(=O)OC` (stereo unspecified): the EC50 was above 200 µM and the 50% inhibitory concentration (IC50) is above 100 µM.

As for `CC(=O)O[C@@H]1CC[C@@]2(C)C(CC[C@H]3[C@@H]4CC[C@H]([C@H](C)CCc5nc6ccc(C)cc6[nH]5)[C@@]4(C)CC[C@@H]32)C1` (stereo partly specified), the EC50 is above 200 µM and the IC50 came to 16.6 µM.

Regarding `N#Cc1ccc(Oc2ccccc2)cc1C#N`, the EC50 was above 45.7 µM and the IC50 is above 45.7 µM.

Consider `NC(=S)N/N=C/c1ncccc1O`, for which the EC50 was above 12.6 µM and the IC50 was 0.794 µM.

With `COC1=C(OC)C(=O)C(C/C=C(\C)CC/C=C(\C)CC/C=C(\C)CC/C=C(\C)CC/C=C(\C)CC/C=C(\C)CC/C=C(\C)CC/C=C(\C)CC/C=C(\C)CCC=C(C)C)=C(C)C1=O`, the EC50 was above 110 µM and the IC50 is above 110 µM.

`CC(NC(=O)C(Cc1ccc(OC(=O)c2ccccc2)cc1)NC(=O)OC(C)(C)C)C(=O)NCC(=O)NC(Cc1ccccc1)C(=O)NN` (stereo unspecified): the EC50 was above 200 µM and the half-inhibitory concentration (IC50) was determined as 11.7 µM.

In the case of `CC(=O)NNC(=S)N/C=C(/C(=O)c1ccccc1)c1ccccc1`, the EC50 is above 479 µM and the IC50 was found to be 302 µM.

On to `COC(=O)CCC(C)C1CCC2[C@@H]3CC[C@@H]4CC(O)CC[C@]4(C)C3CC[C@]12C` (stereo partly specified), for which the EC50 was above 25.7 µM and the half-inhibitory concentration (IC50) is above 25.7 µM.

For `COc1cc2c(cc1OC)CC1c3cc(OC)c(OC)cc3CCN1CC2` (stereo unspecified), the EC50 was above 200 µM and the IC50 was 30.2 µM.

For `CC1(c2ccccc2Cl)C(C#N)C(=O)NC(=O)C1C#N` (stereo unspecified), the EC50 is above 91.2 µM and the IC50 amounted to 46.8 µM.

On to `Fc1ccc(F)c(C2SCc3nc4ccccc4n32)c1` (stereo unspecified), for which the result was inactive.

Regarding `CN(C)c1ccc(/C=C2/NC(=S)NC2=O)cc1`, the EC50 is above 200 µM and the IC50 was determined as 20 µM.

Take `Cc1nc(Nc2ccc(Cl)cc2)sc1C(=O)Nc1cccc2c(=O)[nH][nH]c(=O)c12`: the EC50 was above 17 µM and the IC50 was above 17 µM.

Consider `Nc1ccc(S(=O)(=O)NNc2nc(N3CCCCC3)nc(N3CCCCC3)n2)cc1`, for which the EC50 is above 200 µM and the half-maximal inhibitory concentration (IC50) is above 200 µM.

In the case of `COc1ccc(-c2onc(-c3ccc([N+](=O)[O-])cc3)c2C2=NCCN2)cc1`, the EC50 was above 12.9 µM and the IC50 was above 12.9 µM.

In the case of `COc1ccccc1NC(=O)CC(=O)n1nc(C)c(N=Nc2ccccc2Cl)c1C`, the outcome was inactive.

In the case of `CCn1c2c(c3ccccc31)[C@@H](c1ccc(Cl)cc1)CC1C(=O)N(c3ccccc3)C(=O)C21` (stereo partly specified), the EC50 was above 11.5 µM and the IC50 was above 11.5 µM.

Regarding `O=C(O)c1nc2ccc(C(F)(F)F)cc2nc1NCc1ccc(Cl)c(Cl)c1`, the EC50 is above 200 µM and the IC50 amounted to 19.1 µM.

As for `CCCCCCCCCCCCCCCCCCOC(CO)COP(=O)(O)OCC1OC(n2cc(C)c(=O)[nH]c2=O)CC1F` (stereo unspecified), the EC50 is 0.00155 µM and the concentration for half-maximal inhibition (IC50) came out at 2 µM.

As to `Cc1ccc(S(=O)(=O)N2CCN(CCO)CCN(S(=O)(=O)c3ccc(C)cc3)CCN(CCO)CC2)cc1`, the EC50 was above 200 µM and the IC50 was 34.7 µM.

Consider `O=Cc1ccc(-c2cccs2)s1`, for which the result was inactive.

As to `COC(=O)C1CCC(=O)NCCCCC(NC(=O)C(N)CC(=O)O)C(=O)N1` (stereo not drawn) (H-Asp-Lys-Glu-OMe; lactam 2-3; configuration not given here), the EC50 was above 200 µM and the IC50 was 91.2 µM.

`O=c1[nH]c(=O)n(C2OC(CO)C(O)C2O)c2nccnc12` (stereo unspecified): the EC50 was above 200 µM and the 50% inhibitory concentration (IC50) was above 200 µM.

As for `CCN(CC)CCN1C(=O)CN=C(c2ccccn2)c2cc(Cl)ccc21`, the EC50 is above 447 µM and the concentration for half-maximal inhibition (IC50) came to 240 µM.

For the compound `CC[C@@H]1CC[C@@H]2[C@H](CC[C@]3(C)[C@@H](OC(C)=O)CC[C@@H]23)[C@H]1C(=O)OC`, the EC50 was above 200 µM and the 50% inhibitory concentration (IC50) was found to be 24.5 µM.

On to `O=C1NC(=NC2CCCCC2)C2(CCN(CCCC3(c4ccc(F)cc4)OCCO3)CC2)N1c1ccccc1`, for which the EC50 is above 200 µM and the IC50 is 102 µM.

For `Nc1cc(Cl)ccc1N1C(=O)C=CC1=O`, the result was inactive.

Consider `NCCSC12CC3CC(CC(C3)C1)C2`, for which the EC50 was above 200 µM and the half-maximal inhibitory concentration (IC50) was found to be 67.6 µM.

Turning to `C[C@@]12C[C@@H](OC(=O)[C@]1(C)O)[C@@H]([C@]1(O)CC[C@H]3[C@@H]4C[C@H]5O[C@]56CC=CC(=O)[C@]6(C)[C@H]4CC[C@@]31C)C2`, the EC50 is 0.02 µM and the IC50 amounted to 0.324 µM.

Regarding `O=C1CSC(c2ccc(Cl)cc2Cl)N1c1ccc(Oc2ccc(Cl)cc2)c(Cl)c1` (stereo unspecified), the EC50 was above 100 µM and the concentration for half-maximal inhibition (IC50) was determined as 26.3 µM.

For the compound `COc1ccc(C(c2c(O)c3ccccc3oc2=O)N2CCCC2)c(OC)c1` (stereo unspecified), the EC50 was above 200 µM and the IC50 turned out to be 95.5 µM.

`CCOC(=O)c1cc2c3ccn(Cc4ccccc4)c3c3c(C)[nH]oc3c2n1`: the concentration for a half-maximal effect (EC50) is 26.3 µM and the IC50 is above 200 µM.

On to `O=C(O)/C=C/S(=O)(=O)O`, for which the EC50 was above 200 µM and the IC50 was above 200 µM.

Consider `CCOP(=O)(OCC)C(Cc1cn(S(=O)(=O)c2ccc(C)cc2)cn1)C(=O)O` (stereo unspecified), for which the EC50 is above 200 µM and the IC50 was above 200 µM.

Take `COC(=O)CN(CC(=O)NCCNC(=O)OC(C)(C)C)C1CCCCC1N(CC(=O)OC)CC(=O)OC` (stereo unspecified): the EC50 was above 200 µM and the half-maximal inhibitory concentration (IC50) is above 200 µM.

For `OCC1OC(n2cnc3c(Cl)ncnc32)C(O)C1O` (stereo unspecified), the result was inactive.

With `C=C(C)C1Cc2c(cc3c(c2O)c(=O)c2ccccc2n3C)O1` (stereo unspecified), the EC50 is above 200 µM and the IC50 worked out at 1.17 µM.

Regarding `Cc1cc2nc(CCC(=O)O)c(=O)[nH]c2cc1C`, the EC50 is above 1000 µM and the IC50 was above 1000 µM.

`Clc1ccccc1-c1nn2c(CCCCCCCCc3nnc4sc(-c5ccccc5Cl)nn34)nnc2s1`: the EC50 was above 200 µM and the IC50 turned out to be 105 µM.

`CC1(C)C=C(/C=N/Nc2ccc([N+](=O)[O-])cc2)C(C#N)=C(O)C1(C#N)C#N`: the EC50 is above 200 µM and the 50% inhibitory concentration (IC50) came out at 53.7 µM.

Take `COC(=O)C1(CCSc2ccccc2)CCCC1=O` (stereo unspecified): the EC50 is above 13.5 µM and the IC50 was above 13.5 µM.

On to `c1ccc(CN2CCc3[nH]c4ccccc4c3C2)cc1`, for which the EC50 was above 200 µM and the IC50 was 21.9 µM.

As to `O=C1/C(=C/c2ccc(O)cc2)NC(=S)N1CN1CCCCC1`, the EC50 is above 200 µM and the 50% inhibitory concentration (IC50) was 32.4 µM.

For the compound `COc1ccc(-c2cc(-c3ccccc3)c(C#N)c(=O)n2C2OC(CO)C(O)C(O)C2O)cc1` (stereo unspecified), the EC50 was above 21.4 µM and the IC50 is above 21.4 µM.

Regarding `Cc1cn([C@H]2C[C@@H]3[C@@H](COC(CCC[Se]c4ccccc4)N3O)O2)c(=O)[nH]c1=O` (stereo partly specified), the EC50 was 13.2 µM and the IC50 was determined as 117 µM.

For the compound `CN(C)CC1C(O)C2CCN1CC2` (stereo unspecified), the outcome was inactive.

Turning to `CCOC(=O)CC1c2ccc(O)cc2OC(=O)C1c1ccc(N)cc1` (stereo unspecified), the EC50 is above 200 µM and the IC50 is above 200 µM.

For the compound `CC(=O)NC(CCCN(Cc1ccccc1)C(=O)N(C)N=O)C(=O)NCc1ccccc1` (stereo unspecified), the EC50 was above 112 µM and the IC50 was above 112 µM.

Turning to `Cc1ccc(-c2cn3c(nc4ccccc43)c(-c3ccccc3)n2)cc1`, the EC50 is above 200 µM and the IC50 came out at 174 µM.

Regarding `CCCc1cc(=O)oc2c3c(cc(OC)c12)O[C@H](C)[C@H](C)C3=O`, the EC50 was above 200 µM and the half-inhibitory concentration (IC50) turned out to be 47.9 µM.

Turning to `CCCCNC(=S)OCCC(C)CCCC(C)C` (stereo unspecified), the result was inactive.

As to `CO/C(=N\N=C\c1ccc(Cl)c(Cl)c1)c1ccncc1`, the EC50 was above 23.4 µM and the IC50 was above 23.4 µM.

For the compound `CCCCC1(C(=O)OCC)OC12CCCCC2` (stereo unspecified), the EC50 was above 200 µM and the half-maximal inhibitory concentration (IC50) is above 200 µM.

With `CCCCCC=C(c1cc(Cl)c(OC)c(C(=O)N(C)C)c1)c1cc(Cl)c(OC)c(C(=O)N(C)C)c1`, the EC50 was above 36.3 µM and the IC50 came to 21.4 µM.

For the compound `O=C(NNC(=S)Nc1ccccc1)C12CC3CC(CC(C3)C1)C2`, the EC50 was above 200 µM and the IC50 amounted to 34.7 µM.

As to `CNS(=O)(=O)NN(C)S(=O)(=O)c1ccc(Cl)cc1`, the EC50 was above 209 µM and the IC50 was found to be 204 µM.

Turning to `CNc1nnc(CNc2ccc(-c3nnc(NC)n3N)cc2)n1N`, the EC50 is above 200 µM and the half-maximal inhibitory concentration (IC50) is above 200 µM.

For the compound `CCCCc1c2c([n+]([O-])c3c1CCCC3)CCCC2`, the EC50 is above 138 µM and the IC50 is 22.4 µM.

With `N#Cc1ccc(SSc2ccc(C#N)cc2)cc1`, the EC50 was above 200 µM and the IC50 turned out to be 9.55 µM.

In the case of `[C-]#[N+][C@@H]1C2C([C@@]3(C)CCC(C(C)(C)[N+]#[C-])O3)CC[C@](C)([N+]#[C-])[C@H]2CC[C@@]1(C)O` (stereo partly specified), the outcome was inactive.

`Cc1ccccc1NC(=O)C(=O)Cc1cnc2ccccc2n1`: the EC50 is above 162 µM and the half-maximal inhibitory concentration (IC50) is above 162 µM.

With `O=C(/C=C/c1ccc(O)cc1)c1cc(Cl)ccc1O`, the outcome was inactive.

Turning to `CCOC(=O)C(=[N+]=[N-])C(=O)CN1C(=O)C2CC(C)=C(C)CC2C1O` (stereo unspecified), the EC50 was above 389 µM and the IC50 was above 389 µM.

For `COc1ccc2[nH]c(=O)c(C(C)=O)c(O)c2c1`, the EC50 was above 200 µM and the IC50 is above 200 µM.

Regarding `CCOC(=O)C(C)c1nc2cc(C(F)(F)F)ccc2[nH]c1=O` (stereo unspecified), the EC50 is above 200 µM and the IC50 was found to be 81.3 µM.

Broadly, the EC50 is the concentration giving half of the maximal effect. What is called IC50 is the concentration that inhibits the measured activity by half. Higher therefore signals a need for much substance.
